Assays:
C57BL/6J mice = experiment: Tail suspension test; format: in vivo; details: after 7 days, 1 injection/day, versus saline
[1] = test system: glial glutamate uptake transporter; details: Rothstein et al., Nature 2005; cited from earlier work
[2] = test system: animal model of Amyotrophic Lateral Sclerosis (ALS); details: by increasing glutamate transport, L-[3H] glutamate uptake into cortical membrane; Rothstein et al. 2005; cited from earlier work
[3] = test system: transgenic mice expressing cholera toxin subunit in dopamine D1 receptor-expressing limbic cortical cells; details: cited from earlier work; for perseverative (OCD-like) behaviors: baseline behaviors of the transgenic mice
[4] = test system: patient with SRI-refractory OCD; experiment: Case report two: N-acetylcysteine augmentation of fluvoxamine in SRI-refractory OCD; format: in vivo, human
Source text: A person presented to our clinic seeking help for persistent and severe OCD symptoms. Diagnosis of OCD was confirmed using the Structured Clinical Interview for DSM-IV Axis I Disorders-Clinician Version. First et al., Structured clinical interview for DSM-IV Axis I Disorders (SCID-I Clinician Version), American Psychiatric Press, Inc., Washington, D.C., 1997. After informed consent, a person was admitted to the Clinical Neuroscience Research Unit of the Abraham Ribicoff Research Facilities (New Haven, Conn.) and treated clinically with an off-label use of NAC augmentation of fluvoxamine. OCD symptoms were followed using weekly Yale-Brown Obsessive-Compulsive Scale (Y-BOCS) ratings. NAC (United States Pharmacia grade and in capsule form) was initiated at a starting dose of 600 mg PO daily and titrated upward to a total daily dose of 3 grams per day over 6 weeks. NAC was continued at the dose of 3 grams per day for an additional seven weeks. Fluvoxamine 300 mg was continued throughout the NAC treatment period. A person remained on the inpatient unit throughout the treatment period and received supportive psychotherapy. […] In fact, they were resistant to implementing behavioral interventions given the past failure of such interventions.

[5] = test system: patients with anxiety symptoms; experiment: Riluzole addition in patients with anxiety and mood symptoms (HAM-A); format: in vivo, human
[6] = test system: patient with Trichotillomania; experiment: Case report: riluzole addition in trichotillomania; format: in vivo, human
[7] = test system: patient with severe, chronic TTM; experiment: Case report one: riluzole in trichotillomania and recurrent major depression; format: in vivo, human
[8] = test system: patients with treatment-resistant depression; experiment: Riluzole addition in control group with treatment-resistant depression; details: control group with treatment-resistant depression alone

CO/N=C(\C(=O)N[C@@H]1C(=O)N2C(C(=O)O)=C(CSc3nc(=O)c(=O)[nH]n3C)CS[C@H]12)c1csc(N)n1 [Ceftriaxone, ceftriaxone]
decrease in the immobility time (C57BL/6J mice; C57BL/6J males, 10 animals/group): ~20%
bouts of immobility (C57BL/6J mice): decreased bouts of immobility
latency (C57BL/6J mice): trend for increased latency
upregulation of the glial glutamate transporter [1]: upregulated the glial glutamate transporter more so than many other drugs
neuroprotection [2]: neuroprotective

C[C@]12N[C@H](Cc3ccccc31)c1ccccc12 [MK-801]
perseverative (OCD-like) behaviors [3]: worsen

CC(=O)N[C@@H](CS)C(=O)O [NAC, N-acetylcysteine]
Y-BOCS score ([4]; NAC 600 mg daily titrated to 3 grams per day over 6 weeks, continued seven weeks, fluvoxamine 300 mg): dramatically decreased
side effects ([4]; NAC up to 3 grams per day): a few episodes of mild, brief right hand tingling and a single day of xerostomia
routine lab monitoring ([4]; over the course of admission): no further abnormalities
OCD symptoms at follow-up ([4]; two month follow-up visit, same dose of NAC and fluvoxamine): remained improved

NS(=O)(=O)c1cccc2c1c([N+](=O)[O-])cc1nc(O)c(O)nc12 [NBQX]
perseverative (OCD-like) behaviors [3]: does not affect
worsening of OCD-like behaviors induced by MK-801 ([3]; transgenic mice given MK-801): does not attenuate

Nc1nc2ccc(OC(F)(F)F)cc2s1 [Riluzole, riluzole]
reduction in HAM-A scores post study treatment ([5]; Subjects P3, P5, P6, P7, P11, P12): ≥ 35%
HAM-A scores for the group over time ([5]; riluzole 50 mg twice a day): significantly improved
tolerability / adverse effects ([5]; riluzole 50 mg twice a day): well tolerated with no serious adverse effects noted
Mean Pre-Treatment HAM-A ([5]; thirteen participants, before riluzole): 18.2+/−6.2
Mean Post-Treatment HAM-A ([5]; thirteen participants, riluzole 50 mg twice a day added to existing pharmacotherapy): 12.8+/−7.2
Trichotillomania symptoms ([6]; A person, riluzole up to 100 mg twice a day): cessation of Trichotollomania symptoms
Reduction in PITS score ([6]; after 6 weeks of riluzole addition to Lexapro 30 mg, 50 mg titrated to 100 mg twice a day): 74%
Reduction in MGH Pulling Scale Score ([6]; after 12 weeks of treatment with riluzole): > 35%
urges to pull hair at follow-up ([7]; 72 weeks after initiating riluzole, 100 mg twice a day): minimal and readily ignored
TTM ratings (PITS, MGH Hairpulling Scale) ([7]; at presentation PITS 23, MGH 17, after up-titration of riluzole): corresponding fall
HAM-D at presentation ([7]; before riluzole, on escitalopram 30 mg daily): 26
HAM-D ([7]; week 16, riluzole titrated from 50 mg twice a day to 200 mg daily): 7
urges to pull hair ([7]; with up-titration of riluzole to 150 mg and then 200 mg daily): vanished entirely
HAM-D scores in response to riluzole [8]: significant improvement

Source: US10052318B2, “Glutamate agents in the treatment of mental disorders” (YALE UNIVERSITY, priority 2005, dated 2018)
